In PMC10762035, “Molecular basis of human trace amine-associated receptor 1 activation” (Nature Communications, 2024):
Numbering of substitutions follows the chain as printed. Where “and” joins values, the source holds several entries; their conditions need not be identical. Identical values can stand only once.

What was measured:
Assay type in all cases: cell-based
[1] = biological target: T1, β2AR-Nterm-hTA1-F112^3.41W (CryoEM Construct) (Homo sapiens, UniProt Q96RJ0, F112W); experiment: GloSensor cAMP accumulation assay, cryoEM construct;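 further: cells transiently co-transfected with the receptor construct and GloSensor cAMP biosensor, luminescence read after 30 min compound exposure at room temperature in the dark as cAMP accumulation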;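 on Normalized Luminescence Counts (N=2): normalized to the maximum response of β-PEA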
T1 construct: FLAG (N); 10xHis (N); TEV protease site (N); expressed in transfected cells; host or cells: HEK293T
T1 sequence (Q96RJ0 with tags, fused parts or gaps F112W): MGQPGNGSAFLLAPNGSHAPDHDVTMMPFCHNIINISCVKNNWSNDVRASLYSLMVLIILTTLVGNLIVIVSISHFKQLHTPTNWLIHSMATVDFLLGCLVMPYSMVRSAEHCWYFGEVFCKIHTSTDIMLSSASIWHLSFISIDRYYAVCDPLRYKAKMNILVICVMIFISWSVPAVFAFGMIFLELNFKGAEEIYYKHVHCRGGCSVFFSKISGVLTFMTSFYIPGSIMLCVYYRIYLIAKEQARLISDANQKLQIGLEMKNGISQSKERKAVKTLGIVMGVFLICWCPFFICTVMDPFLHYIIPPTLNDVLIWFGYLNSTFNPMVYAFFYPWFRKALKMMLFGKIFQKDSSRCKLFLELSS

[2] = biological target: T2, hTA1 C88S (Homo sapiens, UniProt Q96RJ0, C88S); experiment: GloSensor cAMP accumulation assay, C88S mutant; details: C88S
T2 construct: expressed in transfected cells; host or cells: HEK293T
T2 sequence (Q96RJ0 1-339 C88S): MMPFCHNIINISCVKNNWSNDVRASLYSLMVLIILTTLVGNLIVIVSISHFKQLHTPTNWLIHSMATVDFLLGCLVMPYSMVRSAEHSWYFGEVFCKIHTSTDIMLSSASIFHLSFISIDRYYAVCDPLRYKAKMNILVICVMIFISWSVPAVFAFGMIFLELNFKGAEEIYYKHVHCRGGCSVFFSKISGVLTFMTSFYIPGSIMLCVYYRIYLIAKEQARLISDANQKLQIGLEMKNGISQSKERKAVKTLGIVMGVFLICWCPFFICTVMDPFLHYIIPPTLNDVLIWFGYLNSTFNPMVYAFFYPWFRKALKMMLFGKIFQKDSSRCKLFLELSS

[3] = biological target: T3, hTA1 C178S (Homo sapiens, UniProt Q96RJ0, C178S); experiment: GloSensor cAMP accumulation assay, C178S mutant; details: for C178S - Normalized Luminescence Counts (N=2): log[Compound], single replicates
T3 construct: expressed in transfected cells; host or cells: HEK293T
T3 sequence (Q96RJ0 1-339 C178S): T2 sequence (Q96RJ0 1-339 C88S) with S88C, C178S

[4] = biological target: T4, hTA1 W264F (Homo sapiens, UniProt Q96RJ0, W264F); experiment: GloSensor cAMP accumulation assay, W264F mutant;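 further: cells transiently transfected with receptor plus GloSensor, luminescence read 30 min after agonist addition at room temperature, concentration-response curves fitted by log(agonist) vs response regression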
T4 construct: expressed in transfected cells; host or cells: HEK293T
T4 sequence (Q96RJ0 1-339 W264F): T2 sequence (Q96RJ0 1-339 C88S) with S88C, W264F

[5] = biological target: T5, hTA1 V184P (Homo sapiens, UniProt Q96RJ0, V184P); experiment: GloSensor cAMP accumulation assay, V184P mutant; details: for cAMP accumulation response, single replicate values (source data, Supplementary Figure 5): hTA1 V184P (N=2), log[Compound]
T5 construct: expressed in transfected cells; host or cells: HEK293T
T5 sequence (Q96RJ0 1-339 V184P): T2 sequence (Q96RJ0 1-339 C88S) with S88C, V184P

[6] = Cryo EM Construct minus WT average
[7] = Cryo EM Construct, mean of each independent experiment (3 replicates)
[8] = C178S, each row one experiment (N=2), 3 replicates

SMILES: Cc1c(F)cccc1[C@H]1COC(N)=N1 [Ro5263397]
- ΔEmax values (each mutant value - WT average), Mean [1, 6]: 19.0137 and 21.294
- ΔpEC50 values (each mutant value - WT average), Mean [1, 6]: -0.1667 and 0.1313
- Emax values, Mean [1, 7]: -0.1667 and 0.1313
- pEC50 values, Mean [1, 7]: 8.664 and 8.962
- Normalized Luminescence Counts (N=2) ([1]; CryoEM Construct, log[Compound], M = -5, single replicates): 130.633 and 139.904 and 147.826 and 114.773
- Span ± SEM (Emax normalized to β-PEA) ([1]; CryoEM Construct, n=2): 106.6 ± 2.69
- pEC50 ± SEM ([1]; CryoEM Construct, n=2): 8.82 ± 0.06
- EC50 ([1]; CryoEM Construct, n=2, read-out: EC50): 1.5 nM
- Emax values ([2]; Mean of fit per experiment): 109.361 and 91.1412
- Span ± SEM (Emax normalized to β-PEA) ([2]; n=2): 100.25 ± 9.11
- pEC50 ± SEM ([2]; n=2): 8.78 ± 0.06
- EC50 ([2]; n=2, read-out: EC50): 1.64 nM
- Emax ([2]; relative to β-PEA): 100.3%
- pEC50 values, Mean [3, 8]: 8.162 and 8.579
- ΔpEC50 values (each mutant value - WT average), Mean [3, 8]: -0.6693 and -0.2522
- Span ± SEM (Emax normalized to β-PEA) ([3]; C178S, n=2): 105.17
- pEC50 ± SEM ([3]; C178S, n=2): 8.37 ± 0.09
- EC50 ([3]; C178S, n=2, read-out: EC50): 4.26 nM
- Emax ([3]; C178S, relative to β-PEA): 105.2%
- Emax values, Mean ([3]; C178S, β-PEA = 100, each row one experiment (N=2), 3 replicates): 92.0056 and 118.332
- C178S - Normalized Luminescence Counts (N=2) ([3]; M = -5): 116.512 and 98.9884 and 102.82 and 110.453 and 111.171 and 57.8292
- C178S - Normalized Luminescence Counts (N=2) ([3]; M = -5.522): 90.6706 and 92.2127 and 73.4274 and 137.917 and 164.274 and 131.185
- C178S - Normalized Luminescence Counts (N=2) ([3]; M = -6): 100.344 and 93.0071 and 81.792 and 122.18 and 154.88 and 155.328
- C178S - Normalized Luminescence Counts (N=2) ([3]; M = -6.522): 92.3996 and 91.979 and 98.7081 and 121.313 and 114.761 and 110.333
- C178S - Normalized Luminescence Counts (N=2) ([3]; M = -7): 78.9882 and 76.0443 and 77.119 and 120.565 and 138.096 and 118.74
- C178S - Normalized Luminescence Counts (N=2) ([3]; M = -7.522): 86.6519 and 72.9134 and 81.9322 and 98.8752 and 109.017 and 95.5544
- C178S - Normalized Luminescence Counts (N=2) ([3]; M = -8): 48.9411 and 58.2403 and 50.0626 and 103.512 and 85.5323 and 112.428
- C178S - Normalized Luminescence Counts (N=2) ([3]; M = -8.522): 29.268 and 30.1559 and 35.3428 and 67.4924 and 67.6121 and 48.0464
- C178S - Normalized Luminescence Counts (N=2) ([3]; M = -9): 15.623 and 14.3146 and 15.5763 and 45.7428 and 46.9395 and 50.4398
- C178S - Normalized Luminescence Counts (N=2) ([3]; M = -9.522): 4.128 and 7.025 and 6.23 and 17.8303 and 18.7278 and 23.3949
- C178S - Normalized Luminescence Counts (N=2) ([3]; M = -10): 3.707 (2×) and 2.258 and 5.325 and 8.915 and 9.424
- C178S - Normalized Luminescence Counts (N=2) ([3]; M = -10.522): 1.885 and 0.4359 and 0.8097 and 2.513 and 2.752 and 5.684
- C178S - Normalized Luminescence Counts (N=2) ([3]; M = -11): 0.4826 and 1.043 and -0.5921 and 4.667 and 6.223 and 4.577
- C178S - Normalized Luminescence Counts (N=2) ([3]; M = -11.522): 0.9967 and 0.3892 and 0.01533 and 3.919 and 5.445 and 4.457
- C178S - Normalized Luminescence Counts (N=2) ([3]; M = -12): 2.258 and 1.511 (2×) and 2.7223 and 4.936 and 4.158
- C178S - Normalized Luminescence Counts (N=2) ([3]; M = -12.522): 0.1555 and 0.7163 and 0.9032 and 5.3849 and 3.7993 and 4.607
- ΔEmax values (each mutant value - WT average) ([4]; W246F mutant (so in the source) minus WT average): -34.1318
- pEC50 values, Mean ([4]; W246F mutant (so in the source), each line an independent experiment, 3 replicates): 5.605 and 5.96
- Emax values, Mean ([4]; W246F mutant (so in the source), β-PEA = 100, each line an independent experiment, 3 replicates): 52.5716 and 62.1592
- decrease in potency vs wild type ([4]; W264F): more than 1000 fold
- Span ± SEM (Emax normalized to β-PEA) ([4]; W264F, n=2): 57.37 ± 4.79
- pEC50 ± SEM ([4]; W264F, n=2): 5.78 ± 0.06
- Span ± SEM (Emax normalized to β-PEA) ([5]; V184P, n=2): 67.49 ± 4.18
- pEC50 ± SEM ([5]; V184P, n=2): 8.72 ± 0.1
- EC50 ([5]; V184P, n=2, read-out: EC50): 1.89 nM
- cAMP accumulation response, single replicate values (source data, Supplementary Figure 5) ([5]; M = -5): 75.9826 and 54.4514 and 68.5146 and 68.2232 and 103.41 and 63.2018
- cAMP accumulation response, single replicate values (source data, Supplementary Figure 5) ([5]; M = -5.522): 60.8526 and 56.6821 and 51.6388 and 54.9916 and 88.8585 and 75.7736
- cAMP accumulation response, single replicate values (source data, Supplementary Figure 5) ([5]; M = -6): 62.1134 and 62.7923 and 57.749 and 52.2793 and 90.2146 and 61.0026
- cAMP accumulation response, single replicate values (source data, Supplementary Figure 5) ([5]; M = -6.522): 55.2273 and 58.8159 and 63.0833 and 59.17 and 90.5079 and 61.9556
- cAMP accumulation response, single replicate values (source data, Supplementary Figure 5) ([5]; M = -7): 76.2736 and 57.458 and 63.8592 and 78.4492 and 93.4034 and 75.9935
- cAMP accumulation response, single replicate values (source data, Supplementary Figure 5) ([5]; M = -7.522): 63.0833 and 60.2707 and 53.2876 and 78.6325 and 73.831 and 68.1499
- cAMP accumulation response, single replicate values (source data, Supplementary Figure 5) ([5]; M = -8): 45.7226 and 42.0371 and 33.6962 and 79.732 and 85.8896 and 81.3081
- cAMP accumulation response, single replicate values (source data, Supplementary Figure 5) ([5]; M = -8.522): 24.6764 and 22.5426 and 25.9372 and 54.0753 and 61.6257 and 60.123
- cAMP accumulation response, single replicate values (source data, Supplementary Figure 5) ([5]; M = -9): 15.8505 and 15.9475 and 14.9776 and 42.9696 and 48.944 and 40.6972
- cAMP accumulation response, single replicate values (source data, Supplementary Figure 5) ([5]; M = -9.522): 5.57 and 4.794 and 3.436 and 18.8157 and 20.0985 and 19.2188
- cAMP accumulation response, single replicate values (source data, Supplementary Figure 5) ([5]; M = -10): -0.05538 and 0.9145 and 0.6235 and 8.626 and 10.7888 and 9.213
- cAMP accumulation response, single replicate values (source data, Supplementary Figure 5) ([5]; M = -10.522): -0.8313 and -0.6373 and -1.025 and 2.3587 and 2.835 and 2.469
- cAMP accumulation response, single replicate values (source data, Supplementary Figure 5) ([5]; M = -11): -0.6373 and -0.7343 and -1.316 and 1.442 and 2.102 and 1.039
- cAMP accumulation response, single replicate values (source data, Supplementary Figure 5) ([5]; M = -11.522): -1.025 and -1.607 and -1.51 and 0.1962 and 0.9659 and -0.5735
- cAMP accumulation response, single replicate values (source data, Supplementary Figure 5) ([5]; M = -12): -0.9283 and -1.122 and -1.4132 and 19.5854 and 20.7216 (2×)
- cAMP accumulation response, single replicate values (source data, Supplementary Figure 5) ([5]; M = -12.522): -1.316 and -1.219 and -0.9283 and 4.704 and 5.621 and 6.281
- pEC50 values, Mean ([5]; hTA1 V184P mutant, Figure 3B source data, each grid row a separate experiment, 3 replicates): 8.393 and 9.05
- Emax values, Mean ([5]; hTA1 V184P mutant, β-PEA set to 100, each grid row a separate experiment, 3 replicates): 63.3156 and 71.6719
